This series can be described thus: Lymph node draining study (IVIS). It counts as in vivo, C57BL/6 mice. The note with it: 31 nmol s.c. at tail base, after 1 day. The method, then:
sHDL-[…](FITC)L was prepared as described above. Female C57BL/6 mice of age 6-8 weeks were purchased from Harlan Laboratories. C57BL/6 mice were subcutaneously injected with free […](FITC)L or sHDL-[…](FITC)L. 24 hours after injection, mice were euthanized by carbon dioxide inhalation and axillary lymph nodes and inguinal lymph nodes were harvested and imaged with IVIS optical imaging system (Caliper Lifesciences).
For lymph node draining studies, C57BL/6 mice were injected with free CSSSIINFBK(FITC)L, sHDL-CSSSIINFBK(FITC)L, free Cho-CpG(Cy5), or sHDL-Cho-CpG(Cy5). After 24 h, inguinal lymph nodes were harvested, and FITC or Cy5 fluorescence signal was measured with IVIS optical imaging system (Caliper Life Sciences).

Residues, ends and D or L forms follow the SMILES beside them. *: point of attachment. FITC = O=C1OC2(c3ccc(O)cc3Oc3cc(O)ccc32)c2ccc(NC(=S)*)cc21

Regarding `CC[C@H](C)[C@H](NC(=O)[C@H](CO)NC(=O)[C@H](CO)NC(=O)[C@H](CO)NC(=O)[C@@H](N)CS)C(=O)N[C@H](C(=O)N[C@@H](CC(N)=O)C(=O)N[C@@H](Cc1ccccc1)C(=O)N[C@@H](CCC(=O)O)C(=O)N[C@@H](CCCCNC(=S)Nc1ccc2c(c1)C(=O)OC21c2ccc(O)cc2Oc2cc(O)ccc21)C(=O)N[C@@H](CC(C)C)C(=O)O)[C@@H](C)CC` [free CSS-SIINFEK(FITC)L] (H-CSSSIINFEK(FITC)L-OH), the “FITC signal in inguinal dLNs” value is “minimal FITC signal in inguinal dLNs”.

The values above are taken from patent US12324843B2, “Compositions and methods for delivery of biomacromolecule agents” (The Regents of the University of Michigan, priority 2015, dated 2025).
